Bridge positions count the residues as written; N and C are the ends. Peptide text beside a SMILES is read from it.
How the values were obtained:
Type in all cases: in vivo
insulin = experiment: Arginine-stimulated insulin secretion in Nembutal-anesthetized rats; details: for Insulin: albino male rats, blood 15 min after dose (5 min after arginine), control 372 ± 47
Experimental: (§1) Albino male rats were administered Nembutal intraperitoneally at a dose of 50 milligrams per kilogram. Fifteen minutes later a subcutaneous injection of the test compound or physiological saline was administered. Ten minutes later 0.5 milliliters of arginine (300 milligrams per milliliter, pH 7.2) is injected into the heart. Five minutes after receipt of the arginine the rats are decapitated and blood is collected into trasylol-EDTA. An appropriate aliquot was assayed for growth hormone, insulin and glucagon.

growth hormone = experiment: Arginine-stimulated growth hormone secretion in Nembutal-anesthetized rats; details: for GH: albino male rats, blood 15 min after dose (5 min after arginine), control 288 ± 30, * = p < 0.01
Experimental: as §1

glucagon = experiment: Arginine-stimulated glucagon secretion in Nembutal-anesthetized rats; details: for Glucagon: albino male rats, blood 15 min after dose (5 min after arginine), control 51 ± 4, * = p < 0.01
Experimental: as §1

Compound	Insulin (insulin; 1300 ug/kg subcutaneous)	effect on insulin levels (in words) (insulin; summary of rat assay)	GH (growth hormone; 1300 ug/kg subcutaneous)	reducing secretion of growth hormone (in words) (growth hormone; summary of rat assay)	Glucagon (glucagon; 1300 ug/kg subcutaneous)	reducing secretion of glucagon (in words) (glucagon; summary of rat assay)	Insulin (insulin; 200 ug/kg subcutaneous, + = p < 0.05)	GH (growth hormone; 200 ug/kg subcutaneous)	Glucagon (glucagon; 200 ug/kg subcutaneous)
C[C@H](N)C(=O)NCC(=O)N[C@H]1CSSC[C@@H](C(=O)O)NC(=O)[C@H](CO)NC(=O)[C@H]([C@@H](C)O)NC(=O)[C@H](Cc2ccccc2)NC(=O)[C@H]([C@@H](C)O)NC(=O)[C@H](CCCCN)NC(=O)[C@H](Cc2c[nH]c3ccccc23)NC(=O)[C@H](Cc2ccccc2)NC(=O)[C@H](Cc2ccccc2)NC(=O)[C@H](Cc2c[nH]cn2)NC(=O)[C@H](CCCCN)NC1=O [(His^5)SRIF, L-Alanyl-glycyl-L-cysteinyl-lysyl-L-histidyl-L-phenylalanyl-L-phenylalanyl-L-tryptophyl-L-lysyl-L-threonyl-L-phenylalanyl-L-threonyl-L-seryl-L-cysteine(3-14 cyclic)disulfide] (H-AGCKHFFWKTFTSC-OH; disulfide 3-14)	390 ± 94 μU/ml	without materially affecting insulin levels	83 ± 15 ng/mL	effective agent for reducing secretion of growth hormone	31 ± 6 pg/mL	effective agent for reducing secretion of growth hormone and glucagon	–	–	–
C[C@H](N)C(=O)NCC(=O)N[C@H]1CSSC[C@@H](C(=O)O)NC(=O)[C@H](CO)NC(=O)[C@H]([C@@H](C)O)NC(=O)[C@H](Cc2ccccc2)NC(=O)[C@H]([C@@H](C)O)NC(=O)[C@H](CCCCN)NC(=O)[C@H](Cc2c[nH]c3ccccc23)NC(=O)[C@H](Cc2ccccc2)NC(=O)[C@H](Cc2ccccc2)NC(=O)[C@H](CC(N)=O)NC(=O)[C@H](CCCCN)NC1=O [SRIF, reference compound]	–	–	–	–	–	–	232 ± 23 μU/ml	66 ± 11 ng/mL	26 ± 6 pg/mL

Source: patent US4098782A, “(His^5)-somatostatin and analogues thereof” (American Home Products Corporation, priority 1977, dated 1978)
